Assay results published in PubChem BioAssay (NCI).
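How tested: cells in 96-well plates exposed to compound for 48 hours at five concentrations. The concentration for 50% growth inhibition is given as GI50. TGI is the concentration that stops growth completely.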

Legend:
Experiment in all cases: DTP human tumour cell line panel, 48 h
NCI/ADR-RES ovarian = test system: NCI/ADR-RES ovarian
HCT-15 colon = test system: HCT-15 colon
T-47D breast = test system: T-47D breast
HT29 colon = test system: HT29 colon
TK-10 renal = test system: TK-10 renal
PC-3 prostate = test system: PC-3 prostate
HOP-92 NSCLC = test system: HOP-92 NSCLC
LOX IMVI melanoma = test system: LOX IMVI melanoma
HCC-2998 colon = test system: HCC-2998 colon
DU-145 prostate = test system: DU-145 prostate

SMILES	GI50 (NCI/ADR-RES ovarian)	TGI (NCI/ADR-RES ovarian)	GI50 (HCT-15 colon)	TGI (HCT-15 colon)	GI50 (T-47D breast)	TGI (T-47D breast)	GI50 (HT29 colon)	TGI (HT29 colon)	GI50 (TK-10 renal)	TGI (TK-10 renal)	GI50 (PC-3 prostate)	TGI (PC-3 prostate)	GI50 (HOP-92 NSCLC)	TGI (HOP-92 NSCLC)	GI50 (LOX IMVI melanoma)	TGI (LOX IMVI melanoma)	GI50 (HCC-2998 colon)	TGI (HCC-2998 colon)	GI50 (DU-145 prostate)	TGI (DU-145 prostate)
COc1cccc(C2CC(c3cc(OC)c(OC)c(OC)c3)=NN2)c1 (stereo not drawn)	4.55 µM	27.4 µM	10.1 µM	23.8 µM	20.2 µM	> 100 µM	3.2 µM	27.2 µM	23.7 µM	85.2 µM	7.26 µM	45.9 µM	11.9 µM	39.2 µM	9.49 µM	21.8 µM	4.78 µM	18.3 µM	–	–
Cc1ccc(C(=O)O/N=C2/CCCC/C2=C\c2ccccc2)cc1	–	–	–	> 100 µM	–	–	–	> 100 µM	–	> 100 µM	–	–	–	> 100 µM	–	44.2 µM	–	> 100 µM	–	–
COc1cc2c(cc1O)C=NCC2	–	–	–	> 100 µM	–	–	–	–	–	> 100 µM	–	–	–	> 100 µM	–	–	–	–	–	–
N#Cc1cccc(N2C(=O)c3c(c(-c4ccccc4)c(-c4ccc(Sc5ccc(-c6c(-c7ccccc7)c7c(c(-c8ccccc8)c6-c6ccccc6)C(=O)N(c6cccc(C#N)c6)C7=O)cc5)cc4)c(-c4ccccc4)c3-c3ccccc3)C2=O)c1	–	–	–	> 100 µM	–	–	–	> 100 µM	–	> 100 µM	–	–	–	99.4 µM	–	> 100 µM	–	> 100 µM	–	–
CCC[CH2][Sn]([CH2]CCC)([O]C(=O)c1c(F)cccc1F)[O]C(=O)c1c(F)cccc1F	–	–	1.09 µM	2.28 µM	–	–	1.52 µM	2.87 µM	0.956 µM	2.13 µM	–	–	0.44 µM	1.81 µM	0.353 µM	1.41 µM	1.18 µM	2.41 µM	–	–
COc1cc2c(/C=N\N=C(N)N)c(Cl)[nH]c2cc1C	23.3 µM	50.5 µM	18 µM	34.1 µM	2.96 µM	9.12 µM	–	–	15.7 µM	29.5 µM	6.54 µM	19.5 µM	–	–	11.4 µM	25.3 µM	2.5 µM	5.67 µM	–	–
O=C(NCCCCCCCCNC(=O)c1cnc2ccccc2n1)c1cnc2ccccc2n1	–	–	–	> 100 µM	–	–	–	> 100 µM	–	> 100 µM	–	–	–	> 100 µM	–	> 100 µM	–	–	–	–
CCCCCCCCCCCOC(=S)NC(C)C	–	–	–	31.8 µM	–	–	–	34.6 µM	–	86.1 µM	–	–	–	32.2 µM	–	30.7 µM	–	31.1 µM	–	–
COc1ccc(/C(=N/NC(N)=O)C2(O)C(=O)Nc3ccc([N+](=O)[O-])cc32)cc1 (stereo not drawn)	–	–	–	46.1 µM	–	–	–	42.2 µM	–	–	–	–	–	45.4 µM	–	–	–	> 100 µM	–	–
N=C(c1ccccc1)N(c1ccccc1)c1ccccc1	–	–	–	–	–	–	–	> 100 µM	–	> 100 µM	–	–	–	–	–	> 100 µM	–	> 100 µM	–	–
FC(F)(F)C1(Cl)C(c2ccccc2)=C1c1ccccc1	–	–	–	27.8 µM	–	–	–	29.3 µM	–	35.4 µM	–	–	–	28.4 µM	–	23.8 µM	–	31.8 µM	–	–
C=CCC1OC(C)(C)Oc2ccc(OCOCCOC)cc21 (stereo not drawn)	–	–	–	> 100 µM	–	–	–	> 100 µM	–	> 100 µM	–	–	–	> 100 µM	–	> 100 µM	–	> 100 µM	–	–
O=C(O)CN(c1ccccc1)S(=O)(=O)c1ccc(NC(=O)c2ccccc2)cc1	–	–	–	> 100 µM	–	–	–	–	–	> 100 µM	–	–	–	> 100 µM	–	> 100 µM	–	–	–	–
COc1ccc(S(=O)(=O)NC(C)C(=O)O)cc1 (stereo not drawn)	–	–	–	> 100 µM	–	–	–	> 100 µM	–	> 100 µM	–	–	–	> 100 µM	–	> 100 µM	–	–	–	–
CC1=CC2CC(C)=C(CC[C@]3(C)CC[C@H]([C@@H](C)C(=O)O)OO3)C(C)(C)C2CC1 (stereo partly drawn)	–	–	–	2 µM	–	–	–	0.429 µM	–	3.15 µM	–	–	–	0.369 µM	–	0.207 µM	–	0.818 µM	–	–
COc1cc(C(=O)OCCCCCCCCCCC[P+](c2ccccc2)(c2ccccc2)c2ccccc2)ccc1O	2.43 µM	6.52 µM	1.38 µM	2.97 µM	–	–	–	–	1.65 µM	4.15 µM	–	–	–	–	–	–	0.57 µM	1.92 µM	0.46 µM	1.58 µM
CC[P+](C)(Cc1ccccc1)c1ccccc1 (stereo not drawn)	–	–	–	> 100 µM	–	–	–	> 100 µM	–	> 100 µM	–	–	–	–	–	> 100 µM	–	> 100 µM	–	–
Cc1[nH]ncc1-c1cc2nc(C3CC4CCN3CC4)[nH]c(=O)c2s1 (stereo not drawn)	11.8 µM	> 100 µM	2.44 µM	> 100 µM	–	–	3.85 µM	> 100 µM	1.9 µM	> 100 µM	4.13 µM	> 100 µM	5.5 µM	> 100 µM	1.46 µM	21.1 µM	7.09 µM	> 100 µM	3 µM	> 100 µM
